Test system: pressurized resistance cerebral arteries
Assay: Artery diameter measurement, pressurized rat middle cerebral arteries
Details: for Integral (area under the curve) from the time of drug application until complete washout of effect: change in diameter as a function of time; for Effect remaining after ~6 min of washout (percentual increase from diameter before agent application): when vehicle effect had totally vanished
Method: Artery Diameter Measurement. Middle cerebral arteries were isolated from adult male Sprague-Dawley rats (=250 g) or 8- to 12-week-old β1-knockout and C57BL/6 control mice. Rats and mice were decapitated using a guillotine and sharp scissors, respectively. These procedures were approved by the Institutional Animal Care and Use Committee from The University of Tennessee Health Science Center, an AMLAC-accredited institution. Pressurization of arteries was performed as described (Liu et al., 2004). Endothelium was removed by passing an air bubble into the vessel lumen for 90 sec. Diameter changes were monitored through an inverted microscope (Nikon Eclipse TS100, Nikon Corp., Tokyo, Japan), recorded on camera (Sanyo VCB-3512T, Sanyo Electric Corp., Japan), and transferred to a computer. Diameter data were acquired and analyzed using IonWizard 4.4 software (IonOptics Corp., Milton, Mass., United States of America).
Pressurized arteries were extraluminally perfused with physiological saline solution (PSS) (Liu et al., 2004) at a constant rate of 3.75 ml/min using a peristaltic pump Dynamax RP-1 (Rainin Instrument, Inc., Oakland, Calif., United States of America). At this rate, complete washout of the iberiotoxin (Ibtx) effect required >45 min. To keep basal tone under steady behavior, we shortened this period by increasing flow rate ˜3 times during washout of Ibtx, which sometimes evoked a flow-induced dilation (FIG. 1A). Equal volumes (25 ml) of vehicle- vs. LC-containing solutions were applied at equal, constant rate (see above) to the pressurized arterial segment in the chamber via a gravity system. Drugs were dissolved to make stock solutions (see Chemicals) and diluted in PSS to final concentration.
Chemicals. All chemicals were purchased from Sigma (St. Louis, Mo., United States of America), with the exception of 5β-cholanic acid 3α-ol (LC) (Steraloids, Inc., Newport, R.I., United States of America) and Ibtx (Alomone Labs Ltd., Jerusalem, Israel). On the day of the experiment, an LC stock solution (333 mM) in dimethyl sulfoxide (DMSO) was freshly prepared by sonication for 5 min. For arterial tone experiments, the LC stock was diluted 1/10 in DMSO and further diluted in PSS to render final LC concentration. Solution containing vehicle (0.1% DMSO; V/V) was used as control perfusion. For electrophysiological recordings, the LC stock solution was diluted 1/10 in 95% ethanol and further diluted with bath solution to render final LC concentration (3-1,000 μM). The DMSO/ethanol vehicle (≦0.1/≦0.86% final concentrations) in bath solution was used as control.
Data Analysis. Artery diameter response to each compound is shown as a percentage of the diameter obtained before compound application. Arterial diameter and electrophysiological data were analyzed with IonWizard 4.4 (IonOptics Corp., Milton, Mass., United States of America) and pCLAMP 8.0 (Molecular Devices, Union City, Calif., United States of America). Further analysis, plotting, and fitting were conducted using Origin 7.0 (Originlab Corp., Northampton, Mass., United States of America) and InStat 3.0 (GraphPad Software Inc., San Diego, Calif., United States of America).
After myogenic tone development at 60 mm Hg, intact arteries reached a diameter of 154.4±5.2 μm (n=17). Maximal contraction and dilation were checked by perfusing the vessel with 60 mM KCl at the beginning, and Ca^2+-free solution at the end of each experiment (FIGS. 1A & 1B). In all cases (n=17), application of 45 μM LC, that is, concentrations well below LC's critical micellar concentration (CMC) (≧1 mM under our recording conditions) (Roda et al., 1995) caused a significant increase in peak arterial diameter: +6% on top of a transient increase in diameter caused by vehicle-containing solution (FIGS. 1A-1C). […]

[1] = 45 μM, listed as Lithocholic acid

For C[C@H](CCC(=O)O)[C@H]1CC[C@H]2[C@@H]3CC[C@@H]4C[C@H](O)CC[C@]4(C)[C@H]3CC[C@]12C [LC, 5β-cholanic acid 3α-ol], the “Change in diameter caused by LC in the presence of Ibtx” value (45 μM LC + 55 nM Ibtx) was −3.4%, the “Change in peak diameter caused by LC in the presence of 4-AP (over pre-LC values)” value (45 μM LC + 0.8 mM 4-AP) was “+6%” and the “Integral (area under the curve) from the time of drug application until complete washout of effect” value (45 μM) was 18,369±3,964. For the same molecule, the “Integral (area under the curve) from the time of drug application until complete washout of effect” value [1] was 18,369 ± 3,964, the “Expected increase in cerebral blood flow (CBF)” value (45 μM, from diameter change by a factor of ~3 (Gourley and Heistad, 1984)) was about 30% and the “Increase in peak arterial diameter on top of the transient increase caused by vehicle” value (45 μM, intact arteries) was “+6%”. The Rise time (45 μM, intact arteries with myogenic tone at 60 mm Hg) was 231.9 ± 21.9 s, the “Effect remaining after ~6 min of washout (percentual increase from diameter before agent application)” value (45 μM) was 109.9±1.7% and the “Effect remaining after ~6 min of washout (percentual increase from diameter before agent application)” value [1] was 109.9 ± 1.7 %. It also gave an Emax at 45 µM (Rattus norvegicus, 45 μM, intact arteries, read-out: Maximal effect (% from diameter before compound application)) of 117 ± 1.9%.
In the case of “iberiotoxin (QFTDVDCSVSKECWSVCKDLFGVDRGKCMGKKCRCYQ; UniProt P24663 1-37, looked up) [Ibtx, reference compound]”, the “Decrease in diameter of intact arteries” value (55 nM, bath application) is reported as −11.8±3.4%.

— patent publication US20080200439A1, “Methods and compositions for modulating BK channel activity and vasodilation” (University of Tennessee Research Foundation, priority 2006, published 2008)
